In experiment [1] the target is T1, labeled rabbit muscle actin (Oryctolagus cuniculus, UniProt P68135).
T1 construct: fluorescent label (chemical); purchased Abcam; host or cells: rabbit muscle
The experiment in a line: In vitro actin polymerization assay. The conditions noted are these: 5 µM, 1 h, room temperature; vehicle plateau about 25,000 RFU. It is filed as biochemical. The source says:
With the aim to confirm the immunofluorescence results and substantiate whether compounds 3 and 4 could inhibit the actin polymerization mechanism and/or boost the F-actin depolymerization, we employed a fluorescent-labeled purified rabbit actin. LA and cytochalasin B (CB) were used as positive controls for both the polymerization inhibition and F-actin subunits dissociation, or only the polymerization inhibition, respectively. In the negative control reaction (only vehicle), actin monomers undergo a normal polymerization, as visible in Figure 5, panel A. The reaction curve rises in approximately 5 min to a value of about 25,000 RFU (plateau) which remains almost unvaried until the end of the experiment. Contrariwise, the two reference molecules, i.e., LA and CB, used at the concentration of 5 µM, braked the actin polymerization, mostly LA rather than CB, under the adopted experimental conditions, and the LA curve dropped until a value of about 8000 RFU at the reaction end.
(§1) An Actin Polymerization/Depolymerization Assay Kit, purchased from Abcam, was employed to assess the ability of compounds 3 and 4 to interfere with the actin polymerization and depolymerization processes. To perform the essays, the manufacturer’s instructions were followed with some modifications. In particular, polymerization assay was carried out incubating in a white 96-well plate the reconstituted actin with supplemented Buffer G, compounds 3 and 4 and then Buffer P was added in order to induce actin polymerization. For the Actin Depolymerization Assay, the actin polymerization was first induced, incubating supplemented Buffers P and G at room temperature for one hour. Then, compounds 3 and 4 were added at a concentration of 5 μM. Latrunculin A (LA) and Cytochalasin B (CB) were utilized as positive control at a concentration of 5 μM. For both the assays, the assemblage of the actin filaments was defined by measuring the fluorescence (Ex/Em: 365/410 nm) in kinetic mode for 1 h at room temperature in a microplate reader.

Experiment [2] deals with T2, F-actin (labeled rabbit muscle actin) (Oryctolagus cuniculus, UniProt P68135).
T2 construct: fluorescent label (chemical); purchased Abcam; host or cells: rabbit muscle
The experiment in a line: In vitro F-actin depolymerization assay. It is filed as biochemical. The note with it: 5 µM added after 1 h polymerization. The protocol:
Moreover, we performed the F-actin depolymerization assay to verify whether compounds 3 and 4 could induce the actin depolymerization as well as the LA does (Figure 5, panel B). For this purpose, we started the actin polymerization for one hour under the same experimental conditions used previously. Then, we added the compounds or the reference molecules at the concentration of 5 µM and monitored the reactions for an additional hour. […] The addition of CB was not able to produce the same effect of LA. […] Contrarily, both the compounds were able to induce an important depolymerizing effect on the F-actin, most evident in the first 7 min after the exposure. Particularly, compounds 3 and 4 produced final values of approximately 14,000 and 12,000 RFU, respectively. […] This combined effect leads to a disorganization of the intracellular actin network.
as §1

A further experiment concerns MDA-MB-231 cells. The experiment in a line: MTT assay, MDA-MB-231 cell viability. The note with it: Homo sapiens, 72 h, mean ± standard deviation. It is filed as cell-based. The method, then: (§2) The inhibition of cancer cell growth exerted by the five considered compounds (1–5) has been evaluated in vitro against two models of breast cancer, namely the estrogen receptor positive (ER+) MCF-7 and the triple negative MDA-MB-231 human breast cancer cells (lacking ER, PR, and HER-2/Neu amplification), together with the normal counterpart, namely the non-malignant breast epithelial cells MCF-10A. […] Moreover, no effects were recorded against the MCF-7 cells, at least until the concentration of 100 μM. […] Thus, the two lead compounds were chosen for subsequent studies aiming at individuating the molecular mechanisms underlying the observed anticancer activity.
(§3) MTT assays (Sigma Aldrich (St.Louis, MO, USA)) were employed to evaluate the in vitro anticancer activities of all the studied compounds, as previously described. The compounds were tested at different concentrations (0.1-1-10-25-50-100 μM) for 72 h. The IC50 values were calculated from the percent (%) of control using GraphPad Prism 9 (GraphPad Software, La Jolla, CA, USA).
A general note: Tetrazolium assays rely on reduction of a dye to a coloured formazan, in cell work by metabolically active cells.

A further experiment concerns MCF-7 cells. The experiment in a line: MTT assay, MCF-7 cell viability. It is filed as cell-based. The conditions noted are these: Homo sapiens, MCF7, 72 h, mean ± standard deviation. The method, then:
as §3

The test system of the next experiment is MCF-10A cells. The experiment in a line: MTT assay, MCF-10A normal cell viability. It is filed as cell-based, human. The note with it: Homo sapiens, MCF-10A, 72 h, non-malignant breast epithelial cells, mean ± standard deviation. The method, then: as §2, §3
Experiment [3] relates to actin system in MDA-MB-231 cells. The experiment in a line: Actin immunofluorescence in MDA-MB-231 cells. It is filed as cell-based, human. The conditions noted are these: MDA-MB-231, 24 h; compounds at their IC50 values, LA 0.1 µM. The method, then: In order to determine whether the lead compounds 3 and 4 may effectively regulate the actin system, we employed both the immunofluorescence and in vitro direct enzymatic assays. […] As negative and positive controls, we used the only vehicle (DMSO) and latrunculin A (LA) at a concentration of 0.1 µM, respectively. After processing, the cells were observed under a fluorescent microscope, (see experimental section for the details). […] Moreover, the latter looked brighter and stocked in the cytoplasm in dot-like structures or thicker fibers. Again, the MDA-MB-231 cells, under exposure to compounds 3 and 4, lost their shape (Figure 4, compounds 3 and 4, panels B), as we observed under LA treatment, and with a very similar arrangement of the actin network.
The cells were plated and further processed, as previously indicated. Specifically, the rabbit anti-β-Actin (Santa Cruz Biotechnology, Dallas, TX, USA), diluted 1:100 in bovine serum albumin (BSA) 2%, was used as primary antibody and incubated overnight at 4 °C. The secondary antibody, Alexa Fluor® 488 conjugate goat-anti-rabbit, was diluted 1:500 and incubated for 2 h at 37 °C. DAPI (4′,6-diamidino-2-phenylindole, Sigma Aldrich, Milan, Italy) 0.2 μg/mL was used for nuclei staining. A fluorescence microscope (Leica DM 6000) was utilized for fluorescence detection (40× magnification). LAS-X software allowed acquiring and processing all the fluorescence images, which are representative of three separate experiments.

On to `C=C1[C@@H](C)[C@H]2[C@H](Cc3ccccc3)NC(=O)[C@]23OC(=O)/C=C/[C@H](O)CCC[C@@H](C)C/C=C/[C@H]3[C@@H]1O` [CB, Cytochalasin B, reference compound], for which the “Actin polymerization, final fluorescence value of reaction curve” value in experiment [1] is “approximately 13,000 RFU”. For the same compound, in experiment [2], the F-actin depolymerizing effect entry is “does not induce the F-actin depolymerization”.

Take `Cc1ccc(C)c2c1c1cc(Br)ccc1n2C(=O)OC(C)(C)C` [Compound 1]: the IC50 (as a rule, the point on the concentration scale where inhibition reaches its midpoint) was 43.5 ± 1.21 µM with MDA-MB-231 cells, above 100 µM in the experiment on MCF-7 cells and above 100 µM with MCF-10A cells.

With `COc1ccc2c(c1)c1c(C)ccc(C)c1n2C(=O)OC(C)(C)C` [Compound 2], the half-maximal inhibitory concentration (IC50) is 8.19 ± 0.26 µM with MDA-MB-231 cells, above 100 µM in the experiment on MCF-7 cells and 89.16 ± 0.47 µM in the experiment on MCF-10A cells.

As to `Cc1ccc(C)c2c1[nH]c1ccc(O)cc12` [Compound 5, 5,8-Dimethyl-9H-carbazol-3-ol], the results for the concentration for half-maximal inhibition (IC50) with MDA-MB-231 cells, with MCF-7 cells and in the experiment on MCF-10A cells were 6.59 ± 0.68 µM, above 100 µM and above 100 µM, respectively.

Regarding `Cc1c2ccncc2c(C)c2c1[nH]c1ccccc12` [Ellipticine, reference compound], the IC50 in the experiment with MDA-MB-231 cells was found to be 1.92 ± 0.38 µM; in the experiment on MCF-10A cells, 1.12 ± 0.51 µM.

On to `C/C1=C/C(=O)O[C@@H]2C[C@@H](CC[C@H](C)/C=C\C=C\CC1)O[C@@](O)([C@@H]1CSC(=O)N1)C2` [LA, Latrunculin A, reference compound], for which, in experiment [3], the “Effect on actin organization (immunofluorescence)” value is “the cells underwent an important shape change”. In addition, in experiment [1], the “Actin polymerization, final fluorescence value of reaction curve” value is recorded as “about 8000 RFU”. In addition, the “F-actin depolymerization, final fluorescence value of reaction curve” value in experiment [2] (monitored 1 h, vehicle 20,000 RFU) was “about 8000 RFU”.

The record behind these values is PMC10051477, “5,8-Dimethyl-9H-carbazole Derivatives Blocking hTopo I Activity and Actin Dynamics” (Pharmaceuticals, 2023).
